# In ChEMBL document CHEMBL1134433, “Discovery of a novel CCR3 selective antagonist” (Bioorg Med Chem Lett, 2001):
# What was measured:
# Assay type in all cases: cell-based
# [1] = biological target: T1, C-C chemokine receptor type 3 (Homo sapiens) (UniProt P51677); assay: Percent inhibition of [125I]eotaxin binding to human CCR3 receptor expressed in CHO cells at 1 uM
# T1 sequence (whole entry): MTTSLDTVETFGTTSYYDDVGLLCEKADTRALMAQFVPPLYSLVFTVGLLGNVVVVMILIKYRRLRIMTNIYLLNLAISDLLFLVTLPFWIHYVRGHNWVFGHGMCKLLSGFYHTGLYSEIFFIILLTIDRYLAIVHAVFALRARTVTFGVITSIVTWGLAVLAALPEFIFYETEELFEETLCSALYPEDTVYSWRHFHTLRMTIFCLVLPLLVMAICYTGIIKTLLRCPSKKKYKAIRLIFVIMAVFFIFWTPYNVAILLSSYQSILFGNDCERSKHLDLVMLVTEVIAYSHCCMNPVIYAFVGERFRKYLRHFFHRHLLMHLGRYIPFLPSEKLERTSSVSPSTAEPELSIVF
# [2] = biological target: T2, C-C chemokine receptor type 1 (Homo sapiens, UniProt P32246); assay: Concentration required for 50% inhibition of [125I]eotaxin binding to human CCR1 receptor expressed in CHO cells
# T2 sequence (P32246 whole entry): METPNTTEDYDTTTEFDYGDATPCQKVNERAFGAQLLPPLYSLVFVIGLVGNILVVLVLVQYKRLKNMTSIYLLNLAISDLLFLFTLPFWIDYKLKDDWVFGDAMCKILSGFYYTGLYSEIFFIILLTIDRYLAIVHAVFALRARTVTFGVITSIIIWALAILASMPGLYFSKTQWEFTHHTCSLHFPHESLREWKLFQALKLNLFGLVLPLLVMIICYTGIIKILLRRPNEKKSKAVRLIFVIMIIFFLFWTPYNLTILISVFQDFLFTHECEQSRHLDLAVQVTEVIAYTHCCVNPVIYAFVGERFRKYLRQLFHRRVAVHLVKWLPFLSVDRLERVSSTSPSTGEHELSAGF
# [3] = biological target: T3, C-C chemokine receptor type 3 (Homo sapiens, UniProt P51677); assay: Concentration required for 50% inhibition of [125I]eotaxin binding to human CCR3 receptor expressed in CHO cells
# T3 sequence (P51677 whole entry): T1 sequence (whole entry)
SMILES,inhibition [1] [%],IC50 [2] [µM],IC50 [3] [µM]
O=C(CSc1nc2ccccc2s1)NCC1CCCN(Cc2ccc3ccccc3c2)C1 (stereo not given),5,–,–
CCOc1ccc2nc(SCC(=O)NC3CCN(Cc4ccc(Cl)c(Cl)c4)CC3)sc2c1,–,3.6,0.02
O=C(CSc1nc2ccccc2s1)NCC1CCCN(CCc2ccccc2)C1 (stereo not given),0,–,–
O=C(CSc1nc2ccccc2s1)NC1CCN(Cc2ccc(Cl)c(Cl)c2)CC1,–,0.45,0.032
O=C(CSc1nc2ccccc2s1)NC1CCN(Cc2cccc(Cl)c2)CC1,–,> 10,0.28
Nc1ccc2nc(SCC(=O)NC3CCN(Cc4ccc(Cl)c(Cl)c4)CC3)sc2c1,–,1.9,0.0023
O=C(CSc1nc2ccccc2s1)NCC1CCCN(Cc2ccccc2)C1 (stereo not given),–,4.2,1
O=C(CSc1nc2ccccc2s1)NCC1CCCN(Cc2cccc3ccccc23)C1 (stereo not given),15,–,–
O=C(CSc1nc2ccccc2s1)NCC1CCCN(Cc2cccnc2)C1 (stereo not given),0,–,–
CCCN1CCCC(CNC(=O)CSc2nc3ccccc3s2)C1 (stereo not given),30,–,–
CCOC(=O)c1ccc2nc(SCC(=O)NC3CCN(Cc4ccc(Cl)c(Cl)c4)CC3)sc2c1,–,> 10,0.048
O=C(CSc1nc2ccccc2s1)NCC1CCCN(Cc2nccs2)C1 (stereo not given),0,–,–
O=C(CSc1nc2ccccc2s1)NC1CCN(Cc2ccc(Cl)cc2)CC1,–,0.26,0.079
O=C(CSc1nc2ccccc2s1)NC1CCN(Cc2ccccc2)CC1,–,7.1,0.75
O=C(CSc1nc2ccccc2s1)NCC1CCCN(Cc2ccncc2)C1 (stereo not given),0,–,–
O=C(CSc1nc2ccccc2s1)NCC1CCCN(CC2CCCCC2)C1 (stereo not given),–,–,1
CCCCCN1CCCC(CNC(=O)CSc2nc3ccccc3s2)C1 (stereo not given),0,–,–
